# Test results reported in ChEMBL document CHEMBL1201862, “PubChem BioAssay data set” (2004).
# The source made the active and inactive calls. No rule for the calls is given here.
# Target: T1, Exodeoxyribonuclease V (Escherichia coli (strain K12), UniProt P04993+P07648+P08394)
# T1 sequence (P04993 whole entry): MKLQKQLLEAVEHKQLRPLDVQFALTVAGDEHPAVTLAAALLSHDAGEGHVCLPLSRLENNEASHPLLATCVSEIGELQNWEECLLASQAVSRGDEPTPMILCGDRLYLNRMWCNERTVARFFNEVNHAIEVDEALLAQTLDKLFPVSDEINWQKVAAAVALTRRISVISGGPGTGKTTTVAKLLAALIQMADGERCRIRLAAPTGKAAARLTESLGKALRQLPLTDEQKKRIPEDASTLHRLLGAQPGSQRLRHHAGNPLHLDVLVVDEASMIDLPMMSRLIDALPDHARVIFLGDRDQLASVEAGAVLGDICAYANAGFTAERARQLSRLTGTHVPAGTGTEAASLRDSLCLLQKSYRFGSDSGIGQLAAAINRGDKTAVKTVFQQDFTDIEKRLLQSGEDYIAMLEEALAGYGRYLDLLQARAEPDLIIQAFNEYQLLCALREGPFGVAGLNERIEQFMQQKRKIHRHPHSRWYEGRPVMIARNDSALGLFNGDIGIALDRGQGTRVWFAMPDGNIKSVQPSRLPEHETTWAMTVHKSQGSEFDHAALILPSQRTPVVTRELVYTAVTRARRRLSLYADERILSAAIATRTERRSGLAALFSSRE
# T1 sequence (P07648 whole entry): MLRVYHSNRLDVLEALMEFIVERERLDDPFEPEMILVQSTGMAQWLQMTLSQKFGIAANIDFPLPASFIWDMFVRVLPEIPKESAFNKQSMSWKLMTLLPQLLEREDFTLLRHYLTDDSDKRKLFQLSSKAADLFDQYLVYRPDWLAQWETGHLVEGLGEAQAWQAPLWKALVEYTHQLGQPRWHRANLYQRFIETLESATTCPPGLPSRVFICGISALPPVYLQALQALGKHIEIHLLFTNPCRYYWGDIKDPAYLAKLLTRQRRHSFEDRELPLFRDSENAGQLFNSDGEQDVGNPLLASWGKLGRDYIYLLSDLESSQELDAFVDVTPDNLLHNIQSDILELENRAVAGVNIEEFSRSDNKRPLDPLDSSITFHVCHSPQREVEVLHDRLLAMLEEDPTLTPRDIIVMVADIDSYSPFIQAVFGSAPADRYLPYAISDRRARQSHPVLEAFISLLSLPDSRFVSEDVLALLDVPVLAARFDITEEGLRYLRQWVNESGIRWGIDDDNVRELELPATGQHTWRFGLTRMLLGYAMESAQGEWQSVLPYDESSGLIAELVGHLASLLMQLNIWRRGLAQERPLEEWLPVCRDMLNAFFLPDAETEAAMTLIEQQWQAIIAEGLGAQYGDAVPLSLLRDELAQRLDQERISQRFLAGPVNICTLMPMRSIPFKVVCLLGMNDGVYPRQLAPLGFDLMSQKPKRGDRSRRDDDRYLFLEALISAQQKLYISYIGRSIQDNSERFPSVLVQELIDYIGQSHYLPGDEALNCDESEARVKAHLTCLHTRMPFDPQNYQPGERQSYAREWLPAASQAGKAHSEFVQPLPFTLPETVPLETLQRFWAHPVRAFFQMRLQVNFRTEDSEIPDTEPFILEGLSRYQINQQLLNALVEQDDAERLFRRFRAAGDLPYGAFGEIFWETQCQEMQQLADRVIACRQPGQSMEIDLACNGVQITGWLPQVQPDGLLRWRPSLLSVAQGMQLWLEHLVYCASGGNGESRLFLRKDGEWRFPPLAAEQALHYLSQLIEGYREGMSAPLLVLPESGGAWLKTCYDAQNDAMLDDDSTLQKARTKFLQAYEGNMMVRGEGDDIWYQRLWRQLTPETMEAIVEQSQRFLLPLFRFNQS
# T1 sequence (P08394 whole entry): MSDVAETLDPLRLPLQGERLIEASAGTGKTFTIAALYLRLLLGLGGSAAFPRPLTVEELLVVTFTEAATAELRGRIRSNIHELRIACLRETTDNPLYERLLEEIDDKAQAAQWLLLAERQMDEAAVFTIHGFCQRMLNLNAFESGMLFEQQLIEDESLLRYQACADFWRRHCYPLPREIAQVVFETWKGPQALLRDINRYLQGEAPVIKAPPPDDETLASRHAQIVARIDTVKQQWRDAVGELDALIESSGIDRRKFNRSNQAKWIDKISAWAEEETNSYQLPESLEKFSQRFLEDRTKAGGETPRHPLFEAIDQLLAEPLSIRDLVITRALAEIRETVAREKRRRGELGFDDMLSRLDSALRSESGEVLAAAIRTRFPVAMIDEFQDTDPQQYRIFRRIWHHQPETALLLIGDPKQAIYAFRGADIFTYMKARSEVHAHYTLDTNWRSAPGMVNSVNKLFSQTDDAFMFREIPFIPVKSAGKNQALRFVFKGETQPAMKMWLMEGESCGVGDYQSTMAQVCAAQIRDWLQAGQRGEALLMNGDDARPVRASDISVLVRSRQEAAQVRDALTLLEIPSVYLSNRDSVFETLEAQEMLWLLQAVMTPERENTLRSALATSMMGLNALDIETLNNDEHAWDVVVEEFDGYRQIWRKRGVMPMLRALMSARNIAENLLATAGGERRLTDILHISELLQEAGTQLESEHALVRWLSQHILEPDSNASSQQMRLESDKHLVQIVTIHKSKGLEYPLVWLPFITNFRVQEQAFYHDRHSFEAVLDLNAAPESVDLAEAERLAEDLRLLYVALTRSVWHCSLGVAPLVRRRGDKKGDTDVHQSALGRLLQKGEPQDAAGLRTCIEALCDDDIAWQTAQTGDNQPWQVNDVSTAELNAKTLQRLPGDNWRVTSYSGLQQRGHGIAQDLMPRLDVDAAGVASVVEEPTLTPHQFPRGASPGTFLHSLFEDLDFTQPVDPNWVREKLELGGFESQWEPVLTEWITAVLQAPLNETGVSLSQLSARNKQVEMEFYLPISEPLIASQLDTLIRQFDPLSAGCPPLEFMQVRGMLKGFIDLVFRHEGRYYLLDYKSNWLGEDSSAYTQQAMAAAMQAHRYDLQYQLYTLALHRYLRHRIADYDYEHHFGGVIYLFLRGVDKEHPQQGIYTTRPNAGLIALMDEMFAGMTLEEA
# Test: E. coli RecBCD inhibitors, dose response, counter-screen for AddAB inhibitor project, absorbance, V66 E. coli, mutant T4 phage (AID 492957)
# Assay type: functional, cell-based, Escherichia coli str. K-12 substr. MG1655
structure (smiles),measurement,value
Cc1ccc(C)c(S(=O)(=O)N2CCN(Cc3ccc(O)c4ncccc34)CC2)c1,IC50,> 119 µM (inactive)
